The values below come from patent US8575158B2, “1-phenyl-substituted heterocyclyl derivatives and their use as prostaglandin D2 receptor modulators” (Actelion Pharmaceuticals Ltd., priority 2010, dated 2013).

SMILES strings stand for the structures.

The target in this assay is T1, hCRTH2 receptor (Homo sapiens, UniProt Q9Y5Y4).
T1 construct: expressed in transfected cells; host or cells: HEK293
T1 sequence (Q9Y5Y4 1-395): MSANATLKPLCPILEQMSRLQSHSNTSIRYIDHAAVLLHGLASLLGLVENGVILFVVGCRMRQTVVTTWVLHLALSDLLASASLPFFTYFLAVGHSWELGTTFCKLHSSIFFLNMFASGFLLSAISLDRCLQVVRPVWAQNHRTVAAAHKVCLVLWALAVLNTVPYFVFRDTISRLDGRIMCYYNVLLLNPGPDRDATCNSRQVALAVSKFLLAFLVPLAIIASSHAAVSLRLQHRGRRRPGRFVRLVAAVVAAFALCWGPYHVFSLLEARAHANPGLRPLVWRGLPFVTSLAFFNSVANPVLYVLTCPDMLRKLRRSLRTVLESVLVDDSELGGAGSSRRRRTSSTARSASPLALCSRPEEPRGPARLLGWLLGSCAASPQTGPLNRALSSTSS
Description: Radioligand displacement assay (3H-PGD2) on hCRTH2 receptor membranes. Type of assay: binding. To be noted: antagonistic activity. (In a radioligand displacement assay an active substance lowers the binding of a labelled ligand.)

[1] abbreviates: 3H-PGD2 displacement on HEK293-hCRTH2 membrane fragments.
Where [2] appears, read: 3H-PGD2 radioligand displacement, HEK293-hCRTH2 membranes.

For `Cc1csc(COC(=O)N2CCc3ccccc3[C@H]2c2cc(Cl)ccc2OCC(=O)O)n1` [Example 276, (S)-1-(2-Carboxymethoxy-5-chloro-phenyl)-3,4-dihydro-1H-isoquinoline-2-carboxylic acid 4-methyl-thiazol-2-ylmethyl ester], under setting [1], the IC50 amounted to 1.82 nM.

Turning to `Cc1ncc(COC(=O)N2CCc3ccccc3[C@H]2c2cc(Cl)ccc2OCC(=O)O)s1` [Example 277, (S)-1-(2-Carboxymethoxy-5-chloro-phenyl)-3,4-dihydro-1H-isoquinoline-2-carboxylic acid 2-methyl-thiazol-5-ylmethyl ester], under setting [1], the 50% inhibitory concentration (IC50) is 0.77 nM.

As to `Cc1nc(COC(=O)N2CCc3ccccc3[C@H]2c2cc(Cl)ccc2OCC(=O)O)cs1` [Example 278, (S)-1-(2-Carboxymethoxy-5-chloro-phenyl)-3,4-dihydro-1H-isoquinoline-2-carboxylic acid 2-methyl-thiazol-4-ylmethyl ester], under setting [1], the half-maximal inhibitory concentration (IC50) was determined as 1.28 nM.

Regarding `Cc1cc(COC(=O)N2CCc3ccccc3[C@H]2c2cc(Cl)ccc2OCC(=O)O)on1` [Example 279, (S)-1-(2-Carboxymethoxy-5-chloro-phenyl)-3,4-dihydro-1H-isoquinoline-2-carboxylic acid 3-methyl-isoxazol-5-ylmethyl ester], the IC50 under setting [1] is 0.87 nM.

Under setting [1], `Cc1conc1COC(=O)N1CCc2ccccc2[C@H]1c1cc(Cl)ccc1OCC(=O)O` [Example 280, (S)-1-(2-Carboxymethoxy-5-chloro-phenyl)-3,4-dihydro-1H-isoquinoline-2-carboxylic acid 4-methyl-isoxazol-3-ylmethyl ester] registered a half-inhibitory concentration (IC50) of 0.35 nM.

`Cc1noc(C)c1COC(=O)N1CCc2ccccc2[C@H]1c1cc(Cl)ccc1OCC(=O)O` [Example 281, (S)-1-(2-Carboxymethoxy-5-chloro-phenyl)-3,4-dihydro-1H-isoquinoline-2-carboxylic acid 3,5-dimethyl-isoxazol-4-ylmethyl ester] showed an IC50 under setting [1] of 4.8 nM.

`O=C(O)COc1ccc(Cl)cc1[C@@H]1c2ccccc2CCN1C(=O)OCc1cnccn1` [Example 282, (S)-1-(2-Carboxymethoxy-5-chloro-phenyl)-3,4-dihydro-1H-isoquinoline-2-carboxylic acid pyrazin-2-ylmethyl ester]: under setting [1], the IC50 is 3.96 nM.

Take `O=C(O)COc1ccc(Cl)cc1[C@@H]1c2ccccc2CCN1C(=O)OCc1ccncn1` [Example 283, (S)-1-(2-Carboxymethoxy-5-chloro-phenyl)-3,4-dihydro-1H-isoquinoline-2-carboxylic acid pyrimidin-4-ylmethyl ester]: the 50% inhibitory concentration (IC50) under setting [1] amounted to 7.56 nM.

As for `O=C(O)COc1ccc(Cl)cc1[C@@H]1c2ccccc2CCN1C(=O)OCc1cncnc1` [Example 284, (S)-1-(2-Carboxymethoxy-5-chloro-phenyl)-3,4-dihydro-1H-isoquinoline-2-carboxylic acid pyrimidin-5-ylmethyl ester], under setting [2], the half-inhibitory concentration (IC50) came out at 0.86 nM.

Under setting [2], `O=C(O)COc1ccc(Cl)cc1[C@@H]1c2ccccc2CCN1C(=O)OCCc1ccccc1` [Example 285, (S)-1-(2-Carboxymethoxy-5-chloro-phenyl)-3,4-dihydro-1H-isoquinoline-2-carboxylic acid phenethyl ester] had an IC50 of 3.17 nM.

For the compound `O=C(O)COc1ccc(Cl)cc1[C@@H]1c2ccccc2CCN1C(=O)OCCc1cccc(F)c1` [Example 286, (S)-1-(2-Carboxymethoxy-5-chloro-phenyl)-3,4-dihydro-1H-isoquinoline-2-carboxylic acid 2-(3-fluoro-phenyl)-ethyl ester], the concentration for half-maximal inhibition (IC50) under setting [2] was determined as 2.67 nM.

With `Cn1nccc1COC(=O)N1CCc2ccccc2[C@H]1c1cc(Cl)ccc1OCC(=O)O` [Example 287, (S)-1-(2-Carboxymethoxy-5-chloro-phenyl)-3,4-dihydro-1H-isoquinoline-2-carboxylic acid 2-methyl-2H-pyrazol-3-ylmethyl ester], under setting [2], the half-maximal inhibitory concentration (IC50) is 0.2 nM.

In turn, `Cc1cc(COC(=O)N2CCc3ccccc3[C@H]2c2cc(Cl)ccc2OCC(=O)O)n(C)n1` [Example 288, (S)-1-(2-Carboxymethoxy-5-chloro-phenyl)-3,4-dihydro-1H-isoquinoline-2-carboxylic acid 2,5-dimethyl-2H-pyrazol-3-ylmethyl ester] returned an IC50 under setting [2] of 0.41 nM.

`CCn1nc(C)cc1CCOC(=O)N1CCc2ccccc2[C@H]1c1cc(Cl)ccc1OCC(=O)O` [Example 289, (S)-1-(2-Carboxymethoxy-5-chloro-phenyl)-3,4-dihydro-1H-isoquinoline-2-carboxylic acid 2-(2-ethyl-5-methyl-2H-pyrazol-3-yl)-ethyl ester] returned an IC50 under setting [2] of 2.94 nM.

`Cn1cncc1COC(=O)N1CCc2ccccc2[C@H]1c1cc(Cl)ccc1OCC(=O)O` [Example 290, (S)-1-(2-Carboxymethoxy-5-chloro-phenyl)-3,4-dihydro-1H-isoquinoline-2-carboxylic acid 3-methyl-3H-imidazol-4-ylmethyl ester] had an IC50 under setting [2] of 0.48 nM.

With `Cc1cc(C)n(CCOC(=O)N2CCc3ccccc3[C@H]2c2cc(Cl)ccc2OCC(=O)O)n1` [Example 291, (S)-1-(2-Carboxymethoxy-5-chloro-phenyl)-3,4-dihydro-1H-isoquinoline-2-carboxylic acid 2-(3,5-dimethyl-pyrazol-1-yl)-ethyl ester], under setting [2], the half-maximal inhibitory concentration (IC50) turned out to be 8.92 nM.

Under setting [2], `Cc1cnn(COC(=O)N2CCc3ccccc3[C@H]2c2cc(Cl)ccc2OCC(=O)O)c1` [Example 292, (S)-1-(2-Carboxymethoxy-5-chloro-phenyl)-3,4-dihydro-1H-isoquinoline-2-carboxylic acid 4-methyl-pyrazol-1-ylmethyl ester] displayed a half-inhibitory concentration (IC50) of 2.08 nM.

As for `Cc1nc2ccccc2n1CCOC(=O)N1CCc2ccccc2[C@H]1c1cc(Cl)ccc1OCC(=O)O` [Example 293], the 50% inhibitory concentration (IC50) under setting [2] is 98.1 nM.

Under setting [2], `O=C(O)COc1ccc(Cl)cc1[C@@H]1c2ccccc2CCN1C(=O)OCc1nc2ccccc2s1` [Example 294, (S)-1-(2-Carboxymethoxy-5-chloro-phenyl)-3,4-dihydro-1H-isoquinoline-2-carboxylic acid benzothiazol-2-ylmethyl ester] displayed an IC50 of 1.94 nM.

`O=C(O)COc1ccc(Cl)cc1[C@@H]1c2ccccc2CCN1C(=O)OCc1nc2ccccc2o1` [Example 295, (S)-1-(2-Carboxymethoxy-5-chloro-phenyl)-3,4-dihydro-1H-isoquinoline-2-carboxylic acid benzooxazol-2-ylmethyl ester] showed an IC50 under setting [2] of 7.41 nM.

Turning to `Cn1nc(COC(=O)N2CCc3ccccc3[C@H]2c2cc(Cl)ccc2OCC(=O)O)c2ccccc21` [Example 296, (S)-1-(2-Carboxymethoxy-5-chloro-phenyl)-3,4-dihydro-1H-isoquinoline-2-carboxylic acid 1-methyl-1H-indazol-3-ylmethyl ester], the half-maximal inhibitory concentration (IC50) under setting [2] came out at 1.72 nM.

`O=C(O)COc1ccc(Cl)cc1[C@@H]1c2ccccc2CCN1C(=O)OCn1ncc2ccccc21` [Example 297, (S)-1-(2-Carboxymethoxy-5-chloro-phenyl)-3,4-dihydro-1H-isoquinoline-2-carboxylic acid indazol-1-ylmethyl ester]: the IC50 under setting [2] was found to be 1.06 nM.

Take `O=C(O)COc1ccc(Cl)cc1[C@@H]1c2ccccc2CCN1C(=O)OCc1noc2ccccc12` [Example 298, (S)-1-(2-Carboxymethoxy-5-chloro-phenyl)-3,4-dihydro-1H-isoquinoline-2-carboxylic acid benzo[d]isoxazol-3-ylmethyl ester]: under setting [2], the concentration for half-maximal inhibition (IC50) is 2.49 nM.

Usually IC50 stands for the concentration that inhibits the measured activity by half. Lower therefore signals higher potency.
